Results: patent US20130065936A1, “MODULATION OF BIOACTIVE EPOXY-FATTY ACID LEVELS BY PHOSPHODIESTERASE INHIBITORS” (THE REGENTS OF THE UNIVERSITY OF CALIFORNIA, priority 2010, published 2013)
Read-outs that look alike come from different tables or passages of the source.

Tests used:
Sprague-Dawley rats [1] = test: Acute nociceptive responses in healthy rats, Hargreaves thermal withdrawal latency; type: in vivo, rat; conditions: healthy rats
recombinant mouse sEH = target: T1, recombinant mouse sEH (Mus musculus, UniProt P34914); test: Potency on recombinant mouse sEH, fluorescent substrate; type: biochemical
T1 construct: made in house
T1 sequence (P34914 1-554): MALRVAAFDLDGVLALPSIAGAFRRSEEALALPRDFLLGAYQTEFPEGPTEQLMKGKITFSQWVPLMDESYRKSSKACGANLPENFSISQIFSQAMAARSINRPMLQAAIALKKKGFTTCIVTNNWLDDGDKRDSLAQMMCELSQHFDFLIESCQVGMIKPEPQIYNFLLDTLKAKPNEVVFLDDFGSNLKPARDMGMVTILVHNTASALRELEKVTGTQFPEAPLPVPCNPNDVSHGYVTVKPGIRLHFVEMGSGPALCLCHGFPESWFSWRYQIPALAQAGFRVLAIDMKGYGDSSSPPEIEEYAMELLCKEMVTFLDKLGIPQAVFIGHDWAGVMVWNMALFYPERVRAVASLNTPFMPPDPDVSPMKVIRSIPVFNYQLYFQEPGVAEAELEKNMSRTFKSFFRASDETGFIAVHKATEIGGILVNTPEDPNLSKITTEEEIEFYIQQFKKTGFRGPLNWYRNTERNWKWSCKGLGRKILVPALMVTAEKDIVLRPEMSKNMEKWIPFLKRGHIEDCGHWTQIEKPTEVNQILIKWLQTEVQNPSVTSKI

Sprague-Dawley rats [2] = test: Open field activity; type: in vivo, rat; conditions: 1 h following administration
Experimental: For the measurement of open field activity animals were placed in an acrylic chamber (40×40×20 cm length×width×height) divided into 100 cm^2 (10×10 cm) sections. The number of crossings were recorded when both hind paws crossed into a neighboring cell.

recombinant rat sEH = target: T2, recombinant rat sEH (Rattus norvegicus, UniProt P80299); test: Potency on recombinant rat sEH, fluorescent substrate; type: biochemical
T2 construct: made in house
T2 sequence (P80299 1-554): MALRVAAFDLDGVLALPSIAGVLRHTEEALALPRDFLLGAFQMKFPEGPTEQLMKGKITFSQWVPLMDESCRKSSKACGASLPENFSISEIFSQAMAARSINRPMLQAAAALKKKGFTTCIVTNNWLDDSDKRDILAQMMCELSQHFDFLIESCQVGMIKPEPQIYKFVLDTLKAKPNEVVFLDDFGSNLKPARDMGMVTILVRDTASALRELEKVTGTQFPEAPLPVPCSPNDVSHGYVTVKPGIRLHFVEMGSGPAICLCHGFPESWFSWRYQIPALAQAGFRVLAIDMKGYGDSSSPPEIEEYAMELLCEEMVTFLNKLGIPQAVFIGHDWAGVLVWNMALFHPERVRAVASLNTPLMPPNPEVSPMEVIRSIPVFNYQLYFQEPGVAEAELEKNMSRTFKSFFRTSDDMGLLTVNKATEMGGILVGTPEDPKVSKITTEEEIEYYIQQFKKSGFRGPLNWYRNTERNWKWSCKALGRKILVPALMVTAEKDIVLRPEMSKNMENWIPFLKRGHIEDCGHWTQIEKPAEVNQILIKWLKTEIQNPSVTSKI

[3] = tested on: endogenous oxylipin sEH substrates and products in rat plasma; test: Oxylipin analysis in rat plasma after sEHI / PDE inhibitor administration (LC-ESI-MS/MS); type: in vivo; conditions: rat plasma 60 min after s.c., TPAU 10 mg/kg, rolipram 1 mg/kg;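 also: plasma from tail vein blood, oxylipins quantified by LC-ESI-MS/MS against deuterated internal standards following solid-phase extraction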

COc1ccc(C2CNC(=O)C2)cc1OC1CCCC1 (stereo not shown) [Rolipram]
thermal withdrawal latency (Sprague-Dawley rats [1]; 2 and 4 h after treatments): devoid of effect on withdrawal latency
thermal withdrawal latency / pain related behavior, change from predrug baseline (Sprague-Dawley rats [1]; s.c., about 1 h after administration): effective in elevating pain thresholds
IC50 (recombinant mouse sEH): > 10 µM
voluntary movement in an open-field chamber (motor depressant effect) (Sprague-Dawley rats [2]): significant and dose-dependent decrease in voluntary movement
inhibitory activity in the sEH assay (recombinant rat sEH; 10 and 100 μM, recombinant rat enzyme): No inhibition was observed
IC50 (recombinant rat sEH; read-out: IC50 on recombinant rat sEH): > 100 µM
IC50 (recombinant rat sEH; recombinant sEH, read-out: IC50 Rat): > 10 µM
8(9)-EpETE [3]: 1.25 nM
8(9)-EpETrE [3]: 9.63 nM
8,9-DiHETE [3]: 0.07 nM
8,9-DiHETrE [3]: 0.45 nM
9(10)-EpOME [3]: 55.27 nM
9,10-DiHOME [3]: 24.32 nM
10(11)-EpDPE [3]: 7.51 nM
10,11-DiHDPE [3]: 0.33 nM
11(12)-EpETE [3]: 0.93 nM
11(12)-EpETrE [3]: 13.15 nM
11,12-DiHETE [3]: 0.20 nM
11,12-DiHETrE [3]: 1.67 nM
12(13)-EpOME [3]: 36.32 nM
12,13-DiHOME [3]: 42.01 nM
13(14)-EpDPE [3]: 3.88 nM
13,14-DiHDPE [3]: 0.37 nM
14(15)-EpETE [3]: 0.84 nM
14(15)-EpETrE [3]: 8.52 nM
14,15-DiHETE [3]: 0.28 nM
14,15-DiHETrE [3]: 1.74 nM
16(17)-EpDPE [3]: 3.93 nM
16,17-DiHDPE [3]: 0.72 nM
17(18)-EpETE [3]: 1.76 nM
17,18-DiHETE [3]: 0.77 nM
19(20)-EpDPE [3]: 7.46 nM
19,20-DiHDPE [3]: 2.13 nM
total Dihydroxyeicosanoid [3]: 75.1 nM
total Epoxyeicosanoid [3]: 150.4 nM
12(13)-EpOME ([3]; listed as rolipram): no increase
12,13-DiHOME ([3]; listed as rolipram): significant elevation
